According to patent US20140303092A1 (CHIMERIX, INC., priority 2011, published 2014):

Assay: Study HDP-CDV-201: safety and tolerability (adverse events, laboratory abnormalities, discontinuations)
Assay type: in vivo, human (adult allogeneic HSCT recipients)
Description: Clinical Studies of HDP-CDV were performed and described in detail in the following Examples. For example, HDP-CDV-201 is a placebo-controlled, dose-escalating trial in HSCT CMV (R+) recipients, evaluating the ability of HDP-CDV to prevent or control CMV infection was carried out. Five cohorts were established in which participants or subjects received either placebo or the HDP-CDV orally, in doses ranging from 40 mg weekly (QW) to 200 mg twice weekly (BIW). Subjects who were post-HSCT were enrolled at the time of engraftment and randomized to HDP-CDV or placebo (3 to 1 ratio) and received blinded therapy until approximately 100 day post-transplantation. HDP-CDV doses were 40 mg QW, 100 mg QW, 200 mg QW, 200 mg BIW and 100 mg BIW. Escalation to the next dose was decided by the data monitoring committee after review of the safety data from the previous Cohort. Subjects who developed CMV disease or CMV infection requiring pre-emptive therapy with local standard of care were discontinued from blinded therapy and followed for 4 weeks. Subjects who completed treatment with blinded therapy were followed for 8 weeks post-therapy.
Data from Study HDP-CDV-201 also provided characterization of the safety and tolerability profile of HDP-CDV when administered for the prevention or control of CMV infection in high risk (R^+) post-HSCT adult subjects.
The Safety population (SAFETY) included all randomized subjects who took at least one dose of study treatment. This population was used to summarize safety outcomes based on the treatment actually received, in cases where a subject was treated contrary to the randomization schedule.
The safety and tolerability profile of HDP-CDV, including subject demographics and Baseline characteristics; the AE profile; and laboratory abnormalities of interest were analyzed in the cohorts followed in this investigation.
Subjects completing the treatment period received a full course of study medication; those completing the entire study attended visits through 8 weeks of follow up. Subjects who discontinued treatment may have done so for protocol specified reasons (e.g. development of clinically significant CMV infection requiring preemptive treatment with excluded anti-CMV medications) or for other reasons (e.g., withdrawal, adverse events, loss to follow-up). The disposition of subjects in Study HDP-CDV-201 during the double-blind, placebo-controlled treatment period (through Week 11) is listed by dosing Cohort in TABLE 23.
Adverse events were examined by severity to ensure that all safety signals were identified in this study population. Because of the frequency of events in HSCT recipients, particular attention was given to evaluation of Grade 3 […], 4 (severe), and 5 (fatal) adverse events.
Only those preferred terms for which at least one Grade 3 or higher event was experienced in any treatment group are listed. Cytomegalovirus-related AEs are excluded from this analysis.
HDP-CDV is a lipid conjugate of CDV. Because CDV is known to have adverse effects on renal function and bone marrow, decreased GFR and persistent neutropenia were identified as AEs of special interest. Key renal and hematological (TABLE 30) laboratory parameters were measured and listed below by Study HDP-CDV-201 treatment groups. TABLE 30 includes abnormal levels of serum creatinine, neutrophils, platelets, WBCs, and hemoglobin and includes data at Screening and during the treatment period.
A common metric for unit based dosing of medications is by weight (mg/kg). When the distribution of weights was examined for all subjects participating in the study, the median was 78 kg and the lower 25th percentile weight was approximately 65 kg, which translates to a cut-off of ˜3 mg/kg for a 200 mg total weekly dose. Based upon this approach, a cut-off of 3 mg/kg was used to assess the frequency of diarrhea and associated GI AEs reported for the subjects in Cohorts 3 or 4a (TABLE 40).

[1] = Cohort 2, 100 mg QW, through Week 11

CCCCCCCCCCCCCCCCOCCCOP(=O)(O)COC(CO)Cn1ccc(N)nc1=O (stereo not drawn) [HDP-CDV]
2 (7.4%): Gastrointestinal AE Abdominal distention, subjects (Cohort 2, 100 mg QW) | Gastrointestinal AE Abdominal pain upper, subjects (Cohort 2, 100 mg QW) | Gastrointestinal AE Abdominal pain, subjects (Cohort 2, 100 mg QW) | Gastrointestinal AE Dyspepsia, subjects (Cohort 2, 100 mg QW)
5 (18.5%): Gastrointestinal AE Nausea, subjects (Cohort 2, 100 mg QW)
18 (66.7%) n (%): Subjects completed treatment [1]
1 (3.7%) n (%): TEAE ALT increased (Cohort 2, 100 mg QW, N = 27) | TEAE AST increased (Cohort 2, 100 mg QW, N = 27) | TEAE Blood lactate dehydrogenase increased (Cohort 2, 100 mg QW, N = 27) | TEAE Dysgeusia (Cohort 2, 100 mg QW, N = 27) | TEAE Gamma-glutamyltransferase increased (Cohort 2, 100 mg QW, N = 27) | TEAE Hyperglycaemia (Cohort 2, 100 mg QW, N = 27) | TEAE Hyperkalemia (Cohort 2, 100 mg QW, N = 27) | TEAE Hyponatraemia (Cohort 2, 100 mg QW, N = 27) | TEAE Liver function test abnormal (Cohort 2, 100 mg QW, N = 27) | TEAE Pyrexia (Cohort 2, 100 mg QW, N = 27) | TEAE Recurrent flatulence (Cohort 2, 100 mg QW, N = 27) | TEAE Staphylococcal Bacteremia (Cohort 2, 100 mg QW, N = 27)
1.50 fold: Serum ALT level, Median fold increase from Baseline at Follow-up Week 1 (Cohort 2, 100 mg QW)
8 (29.6%) n (%): TEAE Diarrhoea (Cohort 2, 100 mg QW, N = 27)
7 (25.9%): Alkaline Phosphatase (any time during therapy) >ULN-[…] ULN, subjects (Cohort 2, 100 mg QW)
1 (3.7%): Alkaline Phosphatase (any time during therapy) >2.5-5.0 × ULN, subjects (Cohort 2, 100 mg QW) | Alkaline Phosphatase (any time during therapy) >5.0-20.0 × ULN, subjects (Cohort 2, 100 mg QW) | GI AE Leading to Study Drug Discontinuation: Vomiting, subjects (Cohort 2, 100 mg QW) | GI AEs Leading to Study Drug Discontinuation: Total subjects discontinued (Cohort 2, 100 mg QW) | Gastrointestinal AE Abdominal discomfort, subjects (Cohort 2, 100 mg QW) | Gastrointestinal AE Dysphagia, subjects (Cohort 2, 100 mg QW) | Gastrointestinal AE Epigastric discomfort, subjects (Cohort 2, 100 mg QW) | Gastrointestinal AE Flatulence, subjects (Cohort 2, 100 mg QW) | Gastrointestinal AE Gastritis, subjects (Cohort 2, 100 mg QW) | Gastrointestinal AE Retching, subjects (Cohort 2, 100 mg QW) | Intensity of Gastrointestinal AEs, Grade 3, subjects (Cohort 2, 100 mg QW) | Total Bilirubin (any time during therapy) >1.5-3 × ULN, subjects (Cohort 2, 100 mg QW) | Vomiting leading to study drug withdrawal (Cohort 2, 100 mg QW, N = 27)
5 (18.5%) n (%): TEAE Creatinine increased (Cohort 2, 100 mg QW, N = 27) | TEAE Decreased appetite (Cohort 2, 100 mg QW, N = 27) | TEAE Nausea (Cohort 2, 100 mg QW, N = 27) | TEAE Oedema peripheral (Cohort 2, 100 mg QW, N = 27)
0: Alkaline Phosphatase (Screening) >2.5-5.0 × ULN, subjects (Cohort 2, 100 mg QW) | Alkaline Phosphatase (Screening) >5.0-20.0 × ULN, subjects (Cohort 2, 100 mg QW) | Alkaline Phosphatase (Screening) >20.0 × ULN, subjects (Cohort 2, 100 mg QW) | Alkaline Phosphatase (any time during therapy) >20.0 × ULN, subjects (Cohort 2, 100 mg QW) | GI AE Leading to Study Drug Discontinuation: Abdominal pain, subjects (Cohort 2, 100 mg QW) | GI AE Leading to Study Drug Discontinuation: Diarrhoea, subjects (Cohort 2, 100 mg QW) | GI AE Leading to Study Drug Discontinuation: Dyspepsia, subjects (Cohort 2, 100 mg QW) | GI AE Leading to Study Drug Discontinuation: Nausea, subjects (Cohort 2, 100 mg QW) | Gastrointestinal AE Constipation, subjects (Cohort 2, 100 mg QW) | Gastrointestinal AE Diverticulum intestinal haemorragic, subjects (Cohort 2, 100 mg QW) | Gastrointestinal AE Haematochezia, subjects (Cohort 2, 100 mg QW) | Gastrointestinal AE Haemorroids, subjects (Cohort 2, 100 mg QW) | Gastrointestinal AE Large intestinal ulcer, subjects (Cohort 2, 100 mg QW) | Gastrointestinal AE Odynophagia, subjects (Cohort 2, 100 mg QW) | Gastrointestinal AE Oesophagitis, subjects (Cohort 2, 100 mg QW) | Hepatobiliary clinical AE Cholelithiasis, subjects (Cohort 2, 100 mg QW) | Hepatobiliary clinical AE Hepatomegaly, subjects (Cohort 2, 100 mg QW) | Hepatobiliary clinical AE Hyperbilirubinaemia, subjects (Cohort 2, 100 mg QW) | Hepatobiliary clinical AE Jaundice, subjects (Cohort 2, 100 mg QW) | Hepatobiliary clinical AE Liver injury, subjects (Cohort 2, 100 mg QW) | Intensity of Gastrointestinal AEs, Grade 4, subjects (Cohort 2, 100 mg QW) | Intensity of Gastrointestinal AEs, Grade 5, subjects (Cohort 2, 100 mg QW) | Total Bilirubin (Screening) >3-10 × ULN, subjects (Cohort 2, 100 mg QW) | Total Bilirubin (Screening) >10 × ULN, subjects (Cohort 2, 100 mg QW) | Total Bilirubin (any time during therapy) >1-[…] ULN, subjects (Cohort 2, 100 mg QW) | Total Bilirubin (any time during therapy) >3-10 × ULN, subjects (Cohort 2, 100 mg QW) | Total Bilirubin (any time during therapy) >10 × ULN, subjects (Cohort 2, 100 mg QW)
0 n (%): TEAE Acute Myeloid Leukemia recurrent (Cohort 2, 100 mg QW, N = 27) | TEAE Acute Renal Failure (Cohort 2, 100 mg QW, N = 27) | TEAE Generalized oedema (Cohort 2, 100 mg QW, N = 27) | TEAE Hyperbilirubinaemia (Cohort 2, 100 mg QW, N = 27) | TEAE Hypocalcaemia (Cohort 2, 100 mg QW, N = 27) | TEAE Increased leukocytosis (Cohort 2, 100 mg QW, N = 27) | TEAE Malnutrition (Cohort 2, 100 mg QW, N = 27) | TEAE Oral Candidiasis (Cohort 2, 100 mg QW, N = 27)
4 (14.8%): Gastrointestinal AE GERD, subjects (Cohort 2, 100 mg QW)
8 (29.6%): Gastrointestinal AE Diarrhoea, subjects (Cohort 2, 100 mg QW)
6 (22.2%): Alkaline Phosphatase (Screening) >ULN-[…] ULN, subjects (Cohort 2, 100 mg QW) | Gastrointestinal AE Vomiting, subjects (Cohort 2, 100 mg QW) | Intensity of Gastrointestinal AEs, Grade 1, subjects (Cohort 2, 100 mg QW)
9 (33.3%): All AEs leading to withdrawal (Cohort 2, 100 mg QW, N = 27)
4 (14.8%) n (%): TEAE Cytomegalovirus viremia (Cohort 2, 100 mg QW, N = 27) | TEAE GI Reflux Disease (Cohort 2, 100 mg QW, N = 27) | TEAE Neutropenia (Cohort 2, 100 mg QW, N = 27)
1.53 fold: Serum ALT level, Peak Median fold increase from Baseline (Cohort 2, 100 mg QW)
2 (7.4%) n (%): TEAE Abdominal pain (Cohort 2, 100 mg QW, N = 27) | TEAE Abdominal pain, Upper (Cohort 2, 100 mg QW, N = 27) | TEAE Back Pain (Cohort 2, 100 mg QW, N = 27) | TEAE Hypokalaemia (Cohort 2, 100 mg QW, N = 27) | TEAE Insomnia (Cohort 2, 100 mg QW, N = 27) | TEAE Pneumonia (Cohort 2, 100 mg QW, N = 27) | TEAE Renal Failure (Cohort 2, 100 mg QW, N = 27)
6 (22.2%) n (%): TEAE Vomiting (Cohort 2, 100 mg QW, N = 27)
9 (33.3%) n (%): Subjects who permanently discontinued treatment [1]
0.96 fold: Serum ALT level, Median fold increase from Baseline at Follow-up Week 4 (Cohort 2, 100 mg QW)
1 (3.8%): Total Bilirubin (Screening) >1-[…] ULN, subjects (Cohort 2, 100 mg QW) | Total Bilirubin (Screening) >1.5-3 × ULN, subjects (Cohort 2, 100 mg QW)
10 (37.0%): Intensity of Gastrointestinal AEs, Grade 2, subjects (Cohort 2, 100 mg QW)
3: Grade of hepatobiliary AE acute liver injury, subject 3007 (Cohort 3)
7 (25.5%) n (%): TEAE Acute GVHD (Cohort 2, 100 mg QW, N = 27)
0%: Proportion of Subjects with Stage 3 or 4 Gut GVHD (Cohort 2, 100 mg QW) | Abdominal pain leading to study drug withdrawal (Cohort 2, 100 mg QW, N = 27) | Diarrhoea leading to study drug withdrawal (Cohort 2, 100 mg QW, N = 27) | Dyspepsia leading to study drug withdrawal (Cohort 2, 100 mg QW, N = 27) | Nausea leading to study drug withdrawal (Cohort 2, 100 mg QW, N = 27) | All AEs, Grade 5 (deaths) (Cohort 2, 100 mg QW, N = 27, entire study duration) | Proportion of Subjects with Grade 3 Diarrhea (Cohort 2, 100 mg QW, no Grade 4 or 5 diarrhea in any Cohort)
3 (11.1%) n (%): TEAE Anxiety (Cohort 2, 100 mg QW, N = 27) | TEAE Arthralgias (Cohort 2, 100 mg QW, N = 27) | TEAE Fatigue (Cohort 2, 100 mg QW, N = 27) | TEAE Thrombocytopenia (Cohort 2, 100 mg QW, N = 27) | TEAE Tremor (Cohort 2, 100 mg QW, N = 27)
14 (51.9%) n (%): Subjects completed study (Cohort 2, 100 mg QW)
